Some test systems named below: SK-MEL-5; TK-10; 786-0; NCI-H522; UACC-62; CAKI-1; OVCAR-5; COLO 205; EKVX; HCT-15; MDA-MB-231; MOLT-4; OVCAR-4; CCRF-CEM; RXF 393; Hs-578T; A498; HCT-116; NCI/ADR-RES; HL-60.
Holding throughout (assay): NCI-60 cell line screen, 48 h

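How tested: cells in 96-well plates exposed to compound for 48 hours at five concentrations. GI50: concentration for 50% inhibition of growth.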 Calls of active or inactive are those of the source. Cut-off read from the data, not from the text of the source: active = GI50 up to about 1.1 µM and inactive = higher. Bounds are passed on as bounds.

In the case of `CC1NC(=O)c2c(-c3ccccc3)nn(-c3ccccc3)c2NC1=O` (stereo unspecified), the GI50 in the experiment on SK-MEL-5, in the experiment on TK-10, in the experiment on 786-0, in the experiment on NCI-H522, in the experiment with UACC-62 and in the experiment with CAKI-1 was > 100 µM (inactive) throughout. The GI50 is > 100 µM (inactive) with OVCAR-5; > 100 µM (inactive) with COLO 205; > 100 µM (inactive) in the experiment with EKVX; more than 100 µM in the experiment on HCT-15; > 100 µM (inactive) in the experiment on MDA-MB-231; > 100 µM (inactive) with MOLT-4. Besides, the GI50 in the experiment on OVCAR-4, in the experiment with CCRF-CEM, in the experiment with RXF 393, in the experiment on Hs-578T, in the experiment on A498 and with HCT-116 was > 100 µM (inactive) each time. In addition, the GI50 in the experiment with NCI/ADR-RES is > 100 µM (inactive).
As for `CO[C@H]1C[C@H](O[C@H]2CC[C@]3(C=O)[C@H]4CC[C@]5(C)[C@@H](C6=CC(=O)OC6)CC[C@]5(O)[C@@H]4CC[C@]3(O)C2)O[C@H](C)[C@H]1O` [CYMARIN], the GI50 in the experiment with SK-MEL-5 is 0.0993 µM (active); with TK-10, 0.167 µM (active); with 786-0, 0.137 µM (active); in the experiment on NCI-H522, < 0.0393 µM (active); in the experiment on UACC-62 it was 0.43 µM (active); with CAKI-1 it was 0.102 µM (active). The GI50 in the experiment on OVCAR-5 was 0.478 µM (active); with COLO 205, 0.618 µM (active); with EKVX, 0.175 µM (active); with HL-60, 0.118 µM (active); with HCT-15, 0.192 µM; in the experiment with MDA-MB-231, 1.14 µM (inactive). Further, the GI50 in the experiment with MOLT-4 was 0.0883 µM (active); with OVCAR-4, 0.107 µM (active); in the experiment on RXF 393 it was 0.0467 µM (active); with Hs-578T, 0.525 µM (active); with A498, 0.294 µM (active); with HCT-116 it was 0.163 µM (active). Further, in the experiment with NCI/ADR-RES, the GI50 is 0.257 µM (active).
Turning to `COC(=O)c1sc(=S)sc1SCc1cccc(CSc2sc(=S)sc2C(=O)OC)c1`, the GI50 with SK-MEL-5 is > 100 µM (inactive); in the experiment with TK-10 it was 29.4 µM (inactive); with 786-0 it was 33.4 µM (inactive); in the experiment with NCI-H522, > 100 µM (inactive); with UACC-62, 22.9 µM (inactive); in the experiment with CAKI-1, 34.5 µM (inactive). Further, the GI50 was > 100 µM (inactive) in the experiment on OVCAR-5; > 100 µM (inactive) in the experiment with COLO 205; 56 µM (inactive) in the experiment on EKVX; more than 100 µM in the experiment with HCT-15; 36.6 µM (inactive) in the experiment on MDA-MB-231; > 100 µM (inactive) with MOLT-4. Further, the GI50 with OVCAR-4 is > 100 µM (inactive); in the experiment with CCRF-CEM, > 100 µM (inactive); in the experiment on RXF 393, 16.2 µM (inactive); in the experiment on Hs-578T it was 36.3 µM (inactive); in the experiment on A498, 24.8 µM (inactive); in the experiment with HCT-116, 90.6 µM (inactive). The GI50 with NCI/ADR-RES was > 100 µM (inactive).
Regarding `COc1ccc(/C=N/c2ccc(-c3nc4ccccc4[nH]3)cc2)cc1OC`, the GI50 in the experiment on SK-MEL-5, in the experiment with TK-10, with 786-0, in the experiment on NCI-H522, with CAKI-1 and with OVCAR-5 was > 100 µM (inactive) throughout. Also, the GI50 in the experiment with COLO 205 is > 100 µM (inactive); in the experiment with EKVX it was > 100 µM (inactive); in the experiment with HL-60, 63.7 µM (inactive); in the experiment with HCT-15, more than 100 µM; in the experiment on MDA-MB-231, 68.4 µM (inactive); in the experiment with MOLT-4, > 100 µM (inactive). For the same molecule, the GI50 is > 100 µM (inactive) with OVCAR-4; > 100 µM (inactive) in the experiment with CCRF-CEM; 97.9 µM (inactive) with RXF 393; > 100 µM (inactive) with Hs-578T; > 100 µM (inactive) in the experiment on A498; > 100 µM (inactive) in the experiment on HCT-116. For the same molecule, the GI50 in the experiment on NCI/ADR-RES is > 100 µM (inactive).
With `CC1=NN(c2cccc(S(=O)(=O)O)c2)C2(C1)SCC(=O)N2c1nc2ccccc2s1` (stereo unspecified), the GI50 in the experiment with SK-MEL-5, in the experiment on TK-10, in the experiment with 786-0, with NCI-H522, with UACC-62 and in the experiment on CAKI-1 was > 100 µM (inactive) each time. Further, the GI50 in the experiment on OVCAR-5 is > 100 µM (inactive); in the experiment with COLO 205, > 100 µM (inactive); with EKVX, > 100 µM (inactive); in the experiment on HL-60, 91.2 µM (inactive); in the experiment with HCT-15, more than 100 µM; in the experiment with MDA-MB-231, > 100 µM (inactive). In addition, the GI50 with MOLT-4, with OVCAR-4, in the experiment with RXF 393, in the experiment on Hs-578T, in the experiment on A498 and in the experiment with HCT-116 was > 100 µM (inactive) in each case. In addition, the GI50 in the experiment on NCI/ADR-RES was > 100 µM (inactive).
As for `N#CSC/C(Cl)=C/Cl.N#CSC/C(Cl)=C\Cl`, the GI50 with SK-MEL-5 was > 100 µM (inactive); in the experiment with TK-10 it was > 100 µM (inactive); in the experiment with 786-0, > 100 µM (inactive); in the experiment with NCI-H522, > 100 µM (inactive); with UACC-62 it was > 100 µM (inactive); in the experiment on OVCAR-5, 63.2 µM (inactive). In addition, the GI50 in the experiment on COLO 205 was > 100 µM (inactive); in the experiment with EKVX, > 100 µM (inactive); in the experiment on HL-60 it was 43.9 µM (inactive); with HCT-15, more than 100 µM; with MDA-MB-231, > 100 µM (inactive); with MOLT-4, 29.7 µM (inactive). Besides, the GI50 in the experiment with OVCAR-4 is > 100 µM (inactive); in the experiment on CCRF-CEM it was 34.8 µM (inactive); in the experiment on RXF 393 it was > 100 µM (inactive); with Hs-578T, > 100 µM (inactive); with A498, > 100 µM (inactive); with HCT-116 it was > 100 µM (inactive). The GI50 with NCI/ADR-RES was > 100 µM (inactive).
Regarding `Nc1ccccc1-c1noc(=O)[nH]1`, the GI50 in the experiment with SK-MEL-5, in the experiment on TK-10, in the experiment on 786-0, in the experiment with NCI-H522, with UACC-62 and in the experiment on CAKI-1 was > 100 µM (inactive) throughout. The GI50 in the experiment with OVCAR-5 was > 100 µM (inactive); in the experiment on COLO 205, > 100 µM (inactive); in the experiment with EKVX, > 100 µM (inactive); in the experiment on HCT-15 it was more than 100 µM; in the experiment with MDA-MB-231, > 100 µM (inactive); in the experiment with MOLT-4, > 100 µM (inactive). In addition, the GI50 in the experiment with OVCAR-4, in the experiment with CCRF-CEM, with RXF 393, in the experiment on Hs-578T, in the experiment on A498 and with HCT-116 was > 100 µM (inactive) each time. Further, the GI50 with NCI/ADR-RES was > 100 µM (inactive).
In the case of `CCSC1SC(c2ccccc2)(c2ccccc2)c2ccccc21` (stereo unspecified), the GI50 in the experiment on SK-MEL-5 is 26.4 µM (inactive); in the experiment on TK-10, 67.3 µM (inactive); in the experiment with 786-0 it was 43.4 µM (inactive); with NCI-H522, 43.5 µM (inactive); in the experiment on UACC-62, 53.6 µM (inactive); in the experiment with CAKI-1 it was 48.6 µM (inactive). Besides, the GI50 in the experiment with OVCAR-5 is 45.4 µM (inactive); in the experiment on COLO 205, 35 µM (inactive); in the experiment with EKVX, 51.3 µM (inactive); in the experiment on HCT-15, 42.1 µM; in the experiment on MDA-MB-231, 73.1 µM (inactive); in the experiment with MOLT-4, 25.4 µM (inactive). For the same molecule, the GI50 with OVCAR-4 is 55.1 µM (inactive); in the experiment with CCRF-CEM it was 54 µM (inactive); in the experiment with RXF 393, 19.5 µM (inactive); in the experiment with Hs-578T, 54.3 µM (inactive); in the experiment with A498, 22.5 µM (inactive); in the experiment with HCT-116, 30.8 µM (inactive). In the experiment on NCI/ADR-RES, the GI50 is 43.2 µM (inactive).
For the molecule `COC(=O)[C@@H]1CS(=O)(=O)C(C(C)C)N1C(C)=O` (stereo partly specified), the GI50 with SK-MEL-5, in the experiment on TK-10, in the experiment with 786-0, in the experiment on NCI-H522, in the experiment on UACC-62 and in the experiment with CAKI-1 was > 100 µM (inactive) in each case. Besides, the GI50 is > 100 µM (inactive) in the experiment on OVCAR-5; > 100 µM (inactive) in the experiment with COLO 205; > 100 µM (inactive) in the experiment with EKVX; 7.19 µM (inactive) in the experiment with HL-60; more than 100 µM with HCT-15; > 100 µM (inactive) with MDA-MB-231. Moreover, the GI50 in the experiment on OVCAR-4, in the experiment on RXF 393, with Hs-578T, in the experiment with A498, in the experiment with HCT-116 and in the experiment with NCI/ADR-RES was > 100 µM (inactive) each time.
Regarding `C[C@]12CC/C(=N\OCCN3CCCC3)C=C1CCC1C2CC[C@@]2(C)C1CC[C@]2(C)O` (stereo partly specified), the GI50 in the experiment with SK-MEL-5 was 14.8 µM (inactive); with TK-10 it was 15.8 µM (inactive); in the experiment with 786-0, 4.43 µM (inactive); in the experiment with NCI-H522 it was 3.12 µM (inactive); in the experiment on UACC-62, 3.35 µM (inactive); in the experiment on CAKI-1 it was 7.43 µM (inactive). For the same molecule, the GI50 in the experiment with OVCAR-5 is 33.3 µM (inactive); in the experiment with COLO 205, 3.4 µM (inactive); in the experiment with EKVX it was 6.93 µM (inactive); with HCT-15, 3.29 µM; with MDA-MB-231, 16.6 µM (inactive); in the experiment on MOLT-4, 3.74 µM (inactive). In addition, the GI50 was 16.1 µM (inactive) in the experiment with OVCAR-4; 3.56 µM (inactive) with CCRF-CEM; 19.3 µM (inactive) with RXF 393; 13.8 µM (inactive) in the experiment with Hs-578T; 0.647 µM (active) with A498; 5.16 µM (inactive) in the experiment on HCT-116. Besides, in the experiment with NCI/ADR-RES, the GI50 is 3.6 µM (inactive).
As to `O=C1c2cccc(NCCCNCCO)c2C(=O)c2cccc(NCCCNCCO)c21`, the GI50 is 2 µM (inactive) with SK-MEL-5; 3.85 µM (inactive) in the experiment on TK-10; 2.08 µM (inactive) with 786-0; 0.373 µM (active) with NCI-H522; 2.01 µM (inactive) with UACC-62; 2.31 µM (inactive) with OVCAR-5. Further, the GI50 in the experiment with COLO 205 is 1.8 µM (inactive); in the experiment with EKVX, 2.94 µM (inactive); in the experiment on HL-60, 1.27 µM (inactive); in the experiment on HCT-15, 8.99 µM; in the experiment on MDA-MB-231, 1.42 µM (inactive); in the experiment with MOLT-4, 0.769 µM (active). Further, the GI50 with CCRF-CEM is 0.701 µM (active); with RXF 393, 2.13 µM (inactive); in the experiment on Hs-578T, 0.627 µM (active); in the experiment with A498, 2.8 µM (inactive); in the experiment on NCI/ADR-RES it was 13.7 µM (inactive).
